# Experimental data as given in US20240316051A1, “A PHARMACEUTICAL COMBINATION AND USE THEREOF” (Ascentage Pharma (Suzhou) Co., Ltd., priority 2021, published 2024).
# How the values were obtained:
# [1] = target: T1, EED (1-441)-His protein (Homo sapiens, UniProt O75530); test: EED-H3K27Me3 peptide competition binding assay by AlphaScreen; conditions: Table 4A, read-out: Alpha screen
# T1 construct: 20 nM EED (1-441)-His protein
# How it was run: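 EED(1-441)-His was preincubated 15 min with compound, then biotin-H3K27Me3(19-33) peptide added for 30 min; both were added as 20 nM solutions in 25 mM HEPES pH 8, 0.02% Tween-20, 0.5% BSA. Ni-chelate acceptor and streptavidin donor beads (10 μg/ml each final) were added for 1 h in the dark at RT. Signal read at 615 nm (680 nm excitation), normalised to controls and fitted to dose-response for IC50.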
# [2] = test system: human B cell lymphoma cell KARPAS422; test: Cell proliferation (WST-8), KARPAS422, 7 days; type: cell-based; conditions: KARPAS-422, 168 h, WST-8, Table 4A, read-out: Karpas Cell line
# Protocol: Analysis of Cell Proliferation:
# To assess the effect of PRC2 inhibition on cell growth, cells were seeded in 96-well cell culture plates at a density of 2 000-3 000 cells/well in 200 μL of culture medium, and treated with serially diluted compounds for 7 days at 37° C. in an atmosphere of 5% CO2. Cell growth was evaluated by a […] WST-8 assay (Dojindo Molecular Technologies) using a Tecan Infinite M1000 multimode microplate reader (Tecan, Morrisville, NC). The WST-8 reagent was added to the plate, incubated for 1-4 h, and read at 450 nm. The readings were normalized to the DMSO-treated cells, and the IC50 was calculated by nonlinear regression analysis using GraphPad Prism 6 software
# [3] = test system: BAP1 mut mesothelioma PDX model; test: BAP1 mut mesothelioma PDX model (Examples 15-17); type: in vivo, mice; conditions: Compound A-1 10 mg/kg, orally, every other day, 28 days; end of study
# Protocol: (§1) A subcutaneous xenograft tumor model of human tumor immunodeficient mice was established by cell inoculation: tumor cells in logarithmic growth phase were collected, counted, resuspended in 1×PBS, and the cell suspension concentration was adjusted to 2.5-5×10^7/mL. The tumor cells were inoculated subcutaneously in the right side of immunodeficient mice with a 1 ml syringe ([…]), 5-10×10^6/0.2 mL/mouse. All animal experiments were strictly in accordance with the specifications for the use and management of experimental animals in GenePharma Co., Ltd. and Suzhou Ascentage Pharma Co., Ltd. The calculation of relevant parameters refers to the Chinese NMPA “Guidelines for Non-Clinical Research Techniques of Cytotoxic Anti-tumor Drugs”.
# (§2) Animal body weight and tumor size were measured twice weekly during the experiment. The state of the animal and the presence or absence of death were observed every day. The growth of tumor and the effects of treatment on normal behavior of animals were monitored routinely, specifically involving experimental animal activity, feeding and drinking, weight gain or loss, eyes, clothing hair and other abnormalities. The deaths and clinical symptoms observed during the experiment were recorded in the raw data. All operations for administration and measurement of mouse body weight and tumor volume were performed in a clean bench. According to the requirements of the experimental protocol, after the end of the last administration, plasma and tumor tissues were collected, weighed and photographed. The plasma and tumor samples were frozen at −80° C. for ready-to-use.
# (§3) Tumor volume (TV) is calculated as: TV=a×b^2/2, wherein a and b represent the length and width of the tumor to be measured, respectively.
# (§4) The relative tumor volume (RTV) is calculated as: RTV=Vt/V1, wherein V1 is the tumor volume at the start of grouping and administration, and Vt is the tumor volume measured on the t day after administration.
# (§5) The evaluation index of anti-tumor activity is the relative tumor proliferation rate T/C (%), and the calculation formula thereof is: relative tumor proliferation rate T/C (%)=(TRTV/CRTV)×100%, TRTV is the RTV of treatment group, CRTV is the RTV of solvent control group.
# (§6) A dose of drug is considered to be severely toxic if the body weight of mouse is reduced by more than 20% or the number of drug-related deaths exceeds 20%.
# (§7) According to the description by Clarke R., Issues in experimental design and endpoint analysis in the study of experimental cytotoxic agents in vivo in breast cancer and other models [J]. Breast Cancer Research & Treatment, 1997, 46(2-3): 255-278, synergy analysis was evaluated using the following formula: synergy factor=((A/C)×(B/C))/(AB/C); A=RTV value of drug A alone group; B=RTV value of drug B alone group; C=RTV value of the solvent control group, and AB=RTV value of the A and B combination group.
# In this experiment, a BAP1 mut mesothelioma PDX model (Lide Biotech) was established to evaluate the anti-tumor effect of Compound 73. The dosing regimen was as follows: • Compound 73: 50 mg/kg, orally, once per day, for a total of 28 days; • Compound 73: 100 mg/kg, orally, once per day, for a total of 28 days;
# In this experiment, a BAP1 mut mesothelioma PDX model (Lide Biotech) was established to evaluate the anti-tumor effect of Compound 73 in combination with Compound A-1. […]
# [4] = test system: malignant pleural mesothelioma (MPM) PDX model (FGFR1high; BAP1mut); test: Subcutaneous malignant pleural mesothelioma (MPM) PDX model (Example 20); type: in vivo, mice; conditions: Compound 73 100 mg/kg, Compound C 50 mg/kg, each orally every other day, 76 days; alone or combined
# Protocol: as §1, §2, §3
# The relative tumor volume (RTV) is calculated as: RTV=Vt/V1, wherein V1 is the tumor volume at the start of grouping and administration, and Vt is the tumor volume measured on the t day after administration. […]
# Change of body weight (%)=(measured body weight-body weight at the start of grouping)/body weight at the start of grouping×100%. […]
# (§8) According to the description by Clarke R., Issues in experimental design and endpoint analysis in the study of experimental cytotoxic agents in vivo in breast cancer and other models [J]. Breast Cancer Research & Treatment, 1997, 46(2-3): 255-278, synergy analysis was evaluated using the following formula: synergy factor=((A/C)×(B/C))/(AB/C); A=RTV value of drug A alone group; B=RTV value of drug B alone group; C=RTV value of the solvent control group, and AB=RTV value of the A and B combination group. […]
# [5] = test system: BAP1 mut mesothelioma PDX model; test: Subcutaneous BAP1 mut mesothelioma PDX model (Example 21); type: in vivo, mice; conditions: Compound 73 100 mg/kg orally once per day, Compound C 50 mg/kg orally every other day, 36 days; alone or combined
# Protocol: as §1, §2, §3, §4, §5
# (§9) Change of body weight (%)=(measured body weight-body weight at the start of grouping)/body weight at the start of grouping×100%.
# as §6
# In this experiment, subcutaneous BAP1 mut mesothelioma PDX model was established (Lide Biotech) to evaluate the anti-tumor effect of Compound 73 in combination with Compound C. […]
# [6] = test system: H226 (BAP1mut, UHRF1high, TP53WT, CDKN2Adel, FGFRhigh) subcutaneous mesothelioma xenograft; test: H226 subcutaneous mesothelioma xenograft model (Example 22); type: in vivo, mice
# Protocol: as §1, §2, §3, §4, §5, §9, §6
# In this experiment, H226 (BAP1mut, UHRF1high, TP53WT, CDKN2Adel, FGFRhigh) subcutaneous mesothelioma xenograft model was established to evaluate the anti-tumor effect of Compound 73 in combination with Compound C. The dosing regimen was as follows: • Compound C: 50 mg/kg, orally, every other day, for a total of 39 days; • Compound 73: 50 mg/kg, orally, once per day, for a total of 39 days; • Compound 73: 100 mg/kg, orally, once per day, for a total of 39 days.
# [7] = test system: NCI-H28(X1) (BAP1mut, UHRF1high, TP53WT, CDKN2Adel, FGFRlow, NF2WT) subcutaneous mesothelioma xenograft; test: NCI-H28(X1) subcutaneous mesothelioma xenograft model (Example 23); type: in vivo, mice; conditions: Compound C 50 mg/kg orally every other day, Compound 73 100 mg/kg orally once per day, 28 days, alone or combined
# Protocol: as §1, §2, §3, §4
# The evaluation index of anti-tumor activity is the relative tumor proliferation rate T/C (%), and the calculation formula thereof is: relative tumor proliferation rate T/C (%)=(TRTV/CRTV)×100%, TRTV is the RTV of treatment group, CRTV is the RTV of solvent control group. […]
# as §8
# [8] = test system: 22RV1 prostate xenograft; test: Subcutaneous 22RV1 prostate xenograft model (Example 24); type: in vivo, mice
# Protocol: as §1, §2, §3, §4, §5, §9, §6, §7
# In this experiment, subcutaneous 22RV1 prostate xenograft model was established to evaluate the anti-tumor effect of Compound 73 in combination with Compound C. The dosing regimen was as follows: • Compound C: 100 mg/kg, orally, every other day, for a total of 28 days; • Compound 73: 100 mg/kg, orally, once per day, for a total of 28 days;
# (§10) The dosing regimen of each drug in the dosing regimen for the combination is the same as the dosing regimen for the single drug, for a total of 28 days.
# [9] = test system: LnCap prostate xenograft; test: Subcutaneous LnCap prostate xenograft model (Example 25); type: in vivo, mice; conditions: day 17
# Protocol: as §1, §2, §3, §4, §5, §6, §7
# In this experiment, subcutaneous LnCap prostate xenograft model was established to evaluate the anti-tumor effect of Compound 73 in combination with Compound C. The dosing regimen was as follows: • Compound C: 100 mg/kg, orally, every other day, for day 1-day 9; 50 mg/kg, orally, every other day, for day 10-day 28; • Compound 73: 100 mg/kg, orally, once per day, for a total of 28 days;
# as §10
# T1 sequence (O75530 whole entry): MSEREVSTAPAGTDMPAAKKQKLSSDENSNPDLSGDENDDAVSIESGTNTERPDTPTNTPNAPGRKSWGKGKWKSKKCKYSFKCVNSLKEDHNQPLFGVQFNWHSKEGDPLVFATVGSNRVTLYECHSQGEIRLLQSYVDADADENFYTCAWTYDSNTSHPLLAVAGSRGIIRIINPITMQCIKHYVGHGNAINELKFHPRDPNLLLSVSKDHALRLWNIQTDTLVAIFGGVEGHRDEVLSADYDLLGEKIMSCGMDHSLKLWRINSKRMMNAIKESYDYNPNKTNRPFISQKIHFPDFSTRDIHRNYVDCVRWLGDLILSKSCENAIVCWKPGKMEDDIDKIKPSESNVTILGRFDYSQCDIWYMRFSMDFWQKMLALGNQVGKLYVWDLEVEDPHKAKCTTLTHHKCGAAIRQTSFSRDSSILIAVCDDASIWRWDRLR
smiles,measurement,setting,value
"CC(F)(F)CN1Cc2cc(F)ccc2-c2cnc(NCc3c(F)ccc4c3CCO4)n3cnc(c23)C1=O [Compound 76, 4-(2,2-difluoropropyl)-7-fluoro-12-(((5-fluoro-2,3-dihydrobenzofuran-4-yl)methyl)amino)-4,5-dihydro-3H-2,4,11,12a-tetraazabenzo[4,5]cycloocta [1,2,3-cd]inden-3-one]",IC50,[1],0.97 nM
same,IC50,[2],14.5 nM
Cc1ccc(C(=O)Nc2ccc(CN3CCN(C)CC3)c(C(F)(F)F)c2)cc1C#Cc1cnc2[nH]ncc2c1 [Compound A-1],T/C (%),[3],74.8%
"CC(C)(F)CN1Cc2cc(F)ccc2-c2cnc(NCc3c(F)ccc4c3CCO4)n3cnc(c23)C1=O [Compound 78, 7-fluoro-12-(((5-fluoro-2,3-dihydrobenzofuran-4-yl)methyl)amino)-4-(2-fluoro-2-methylpropyl)-4,5-dihydro-3H-2,4,11,12a-tetraazabenzo[4,5] cycloocta[1,2,3-cd]inden-3-one]",IC50,[1],3.23 nM
same,IC50,[2],34.5 nM
CCN1[C@@H](C(=O)NC23CCC(C(=O)O)(CC2)CC3)[C@H](c2cccc(Cl)c2F)[C@]2(C(=O)Nc3cc(Cl)ccc32)C12CCCCC2 [Compound C],RTV @ D 76,[4],3.47
same,T/C (%) @ D 76,[4],60%
same,RTV @ D 36,[5],8.04
same,T/C (%) @ D 36,[5],55.17%
same,T/C (%) @ D 39,"[6]; Compound C 50 mg/kg orally every other day, Compound 73 50 mg/kg orally once per day, alone or combined",49.45%
same,RTV @ D 39,"[6]; Compound C 50 mg/kg orally every other day, Compound 73 50 mg/kg orally once per day, alone or combined, mean ± SEM",3.94 ± 0.69
same,antitumor activity (in words),"[6]; single agents, 39 days (FIG. 10)",moderate antitumor activity
same,T/C (%) @ D 29,[7],92.16%
same,RTV@ D 29,[7]; mean ± SEM,14.06 ± 1.22
same,RTV@ D 26,"[8]; 22RV1 xenograft, day 26, Compound 73 100 mg/kg orally once per day, Compound C 50 mg/kg (table) orally every other day",14.81 ± 4.35
same,T/C(%) @ D 26,"[8]; 22RV1 xenograft, day 26, Compound 73 100 mg/kg, Compound C 50 mg/kg (table)",93.39%
same,RTV@ D 29,"[8]; 22RV1 xenograft, day 29",18.54 ± 7.96
same,T/C value,"[8]; day 26, Compound C 100 mg/kg orally every other day, Compound 73 100 mg/kg orally once per day, alone or combined",93.39%
same,RTV@ D 17,"[9]; LnCap xenograft, Compound 73 100 mg/kg orally once per day, Compound C 100 mg/kg/50 mg/kg orally every other day",2.57 ± 0.24
same,T/C(%) @ D 17,"[9]; LnCap xenograft, Compound 73 100 mg/kg, Compound C 100 mg/kg/50 mg/kg",57.46%
same,T/C value,"[9]; Compound C 100 mg/kg every other day day 1-9 then 50 mg/kg day 10-28, Compound 73 100 mg/kg once per day, orally, alone or combined",57.46%
